Data reported in PubChem BioAssay (NCI).
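A five-concentration, 48-hour dose response in 96-well plates underlies each endpoint, interpolated linearly between surrounding concentrations. The concentration for full growth arrest is given as TGI.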

Key:
Assay in all cases: NCI-60 cell line screen, 48 h
786-0 renal = tested on: 786-0 renal
A498 renal = tested on: A498 renal
A549 NSCLC = tested on: A549 NSCLC
ACHN renal = tested on: ACHN renal
BT-549 breast = tested on: BT-549 breast
CAKI-1 renal = tested on: CAKI-1 renal
CCRF-CEM leukemia = tested on: CCRF-CEM leukemia
COLO 205 colon = tested on: COLO 205 colon
DU-145 prostate = tested on: DU-145 prostate
EKVX NSCLC = tested on: EKVX NSCLC
HCC-2998 colon = tested on: HCC-2998 colon
HCT-116 colon = tested on: HCT-116 colon
HCT-15 colon = tested on: HCT-15 colon
HL-60(TB) leukemia = tested on: HL-60(TB) leukemia
HOP-62 NSCLC = tested on: HOP-62 NSCLC
HOP-92 NSCLC = tested on: HOP-92 NSCLC
HS 578T breast = tested on: HS 578T breast
HT29 colon = tested on: HT29 colon
IGROV1 ovarian = tested on: IGROV1 ovarian
K-562 leukemia = tested on: K-562 leukemia
KM12 colon = tested on: KM12 colon
LOX IMVI melanoma = tested on: LOX IMVI melanoma
M14 melanoma = tested on: M14 melanoma
MALME-3M melanoma = tested on: MALME-3M melanoma
MCF7 breast = tested on: MCF7 breast
MDA-MB-231 breast = tested on: MDA-MB-231 breast
MDA-MB-435 = tested on: MDA-MB-435
MDA-N = tested on: MDA-N
NCI-H226 lung = tested on: NCI-H226 lung
NCI-H23 lung = tested on: NCI-H23 lung
NCI-H460 lung = tested on: NCI-H460 lung
NCI-H522 lung = tested on: NCI-H522 lung
NCI/ADR-RES ovarian = tested on: NCI/ADR-RES ovarian
OVCAR-3 ovarian = tested on: OVCAR-3 ovarian
OVCAR-4 ovarian = tested on: OVCAR-4 ovarian
OVCAR-5 ovarian = tested on: OVCAR-5 ovarian
OVCAR-8 ovarian = tested on: OVCAR-8 ovarian
PC-3 prostate = tested on: PC-3 prostate
RPMI-8226 leukemia = tested on: RPMI-8226 leukemia
RXF 393 renal = tested on: RXF 393 renal
SF-268 CNS = tested on: SF-268 CNS
SF-295 CNS = tested on: SF-295 CNS
SF-539 CNS = tested on: SF-539 CNS
SK-MEL-2 melanoma = tested on: SK-MEL-2 melanoma
SK-MEL-28 melanoma = tested on: SK-MEL-28 melanoma
SK-MEL-5 melanoma = tested on: SK-MEL-5 melanoma
SK-OV-3 ovarian = tested on: SK-OV-3 ovarian
SN12C renal = tested on: SN12C renal
SNB-19 CNS = tested on: SNB-19 CNS
SNB-75 CNS = tested on: SNB-75 CNS
SW-620 colon = tested on: SW-620 colon
T-47D breast = tested on: T-47D breast
TK-10 renal = tested on: TK-10 renal
U251 CNS = tested on: U251 CNS
UACC-257 melanoma = tested on: UACC-257 melanoma
UACC-62 melanoma = tested on: UACC-62 melanoma
UO-31 renal = tested on: UO-31 renal
MOLT-4 leukemia = tested on: MOLT-4 leukemia
SR leukemia = tested on: SR leukemia

CC(=O)O[C@H](C[C@@H](C)[C@H]1C(=O)[C@H](O)[C@@]2(C)C3CC[C@H]4C(C)(C)[C@@H](OC5OCC(O)C(O)C5O)CC[C@@]45C[C@@]35CC[C@]12C)[C@@H]1OC1(C)C (stereo partly specified)
TGI (786-0 renal): 30.2 µM
TGI (A498 renal): 29.3 µM
TGI (A549 NSCLC): > 100 µM
TGI (ACHN renal): 29.4 µM
TGI (BT-549 breast): 51.4 µM
TGI (CAKI-1 renal): 33.3 µM
TGI (CCRF-CEM leukemia): > 100 µM
TGI (COLO 205 colon): 61.3 µM
TGI (DU-145 prostate): 37.7 µM
TGI (EKVX NSCLC): 44.3 µM
TGI (HCC-2998 colon): 29.8 µM
TGI (HCT-116 colon): 38 µM
TGI (HCT-15 colon): 55.4 µM
TGI (HL-60(TB) leukemia): 22.6 µM
TGI (HOP-62 NSCLC): 31.1 µM
TGI (HOP-92 NSCLC): 30.6 µM
TGI (HS 578T breast): > 100 µM
TGI (HT29 colon): > 100 µM
TGI (IGROV1 ovarian): 29.7 µM
TGI (K-562 leukemia): 15.3 µM
TGI (KM12 colon): 53.8 µM
TGI (LOX IMVI melanoma): > 100 µM
TGI (M14 melanoma): 94.5 µM
TGI (MALME-3M melanoma): 32.4 µM
TGI (MCF7 breast): 34.8 µM
TGI (MDA-MB-231 breast): 34.7 µM
TGI (MDA-MB-435): 36.2 µM
TGI (MDA-N): 40.2 µM
TGI (NCI-H226 lung): 33.2 µM
TGI (NCI-H23 lung): 55.4 µM
TGI (NCI-H460 lung): 30.6 µM
TGI (NCI-H522 lung): 33.8 µM
TGI (NCI/ADR-RES ovarian): > 100 µM
TGI (OVCAR-3 ovarian): 7.18 µM
TGI (OVCAR-4 ovarian): 64.5 µM
TGI (OVCAR-5 ovarian): 32 µM
TGI (OVCAR-8 ovarian): 41.3 µM
TGI (PC-3 prostate): 30.4 µM
TGI (RPMI-8226 leukemia): 26.4 µM
TGI (RXF 393 renal): 34.1 µM
TGI (SF-268 CNS): 46.7 µM
TGI (SF-295 CNS): 33.6 µM
TGI (SF-539 CNS): 29.8 µM
TGI (SK-MEL-2 melanoma): 29.5 µM
TGI (SK-MEL-28 melanoma): 44.7 µM
TGI (SK-MEL-5 melanoma): 29.7 µM
TGI (SK-OV-3 ovarian): 26.4 µM
TGI (SN12C renal): 35.7 µM
TGI (SNB-19 CNS): 65.4 µM
TGI (SNB-75 CNS): 26.1 µM
TGI (SW-620 colon): > 100 µM
TGI (T-47D breast): 63.6 µM
TGI (TK-10 renal): 29.8 µM
TGI (U251 CNS): 29.9 µM
TGI (UACC-257 melanoma): 34.8 µM
TGI (UACC-62 melanoma): 27 µM
TGI (UO-31 renal): 54.7 µM

CCCCCCCCCCCCCCCCCCNc1nc(=O)n(C2CC(O)C(COP(=O)(O)OCC(COP(=O)(O)OC3C(CO)OC(n4ccc(N)nc4=O)C3O)OCCCCCCCCCCCCCCCCCC)O2)cc1F (stereo unspecified)
TGI (786-0 renal): 33.3 µM
TGI (A498 renal): > 100 µM
TGI (A549 NSCLC): > 100 µM
TGI (ACHN renal): > 100 µM
TGI (BT-549 breast): > 100 µM
TGI (CAKI-1 renal): > 100 µM
TGI (CCRF-CEM leukemia): > 100 µM
TGI (COLO 205 colon): 37.7 µM
TGI (DU-145 prostate): > 100 µM
TGI (EKVX NSCLC): > 100 µM
TGI (HCC-2998 colon): > 100 µM
TGI (HCT-116 colon): > 100 µM
TGI (HCT-15 colon): > 100 µM
TGI (HL-60(TB) leukemia): > 100 µM
TGI (HOP-62 NSCLC): > 100 µM
TGI (HOP-92 NSCLC): > 100 µM
TGI (HS 578T breast): > 100 µM
TGI (HT29 colon): > 100 µM
TGI (IGROV1 ovarian): > 100 µM
TGI (K-562 leukemia): > 100 µM
TGI (KM12 colon): > 100 µM
TGI (LOX IMVI melanoma): 42.5 µM
TGI (M14 melanoma): > 100 µM
TGI (MALME-3M melanoma): > 100 µM
TGI (MCF7 breast): > 100 µM
TGI (MDA-MB-231 breast): > 100 µM
TGI (MDA-MB-435): > 100 µM
TGI (MDA-N): > 100 µM
TGI (MOLT-4 leukemia): > 100 µM
TGI (NCI-H226 lung): > 100 µM
TGI (NCI-H23 lung): > 100 µM
TGI (NCI-H460 lung): 30.9 µM
TGI (NCI-H522 lung): > 100 µM
TGI (NCI/ADR-RES ovarian): > 100 µM
TGI (OVCAR-3 ovarian): > 100 µM
TGI (OVCAR-4 ovarian): > 100 µM
TGI (OVCAR-5 ovarian): > 100 µM
TGI (OVCAR-8 ovarian): > 100 µM
TGI (PC-3 prostate): 35.4 µM
TGI (RPMI-8226 leukemia): 74.2 µM
TGI (RXF 393 renal): 40.8 µM
TGI (SF-268 CNS): > 100 µM
TGI (SF-295 CNS): > 100 µM
TGI (SF-539 CNS): > 100 µM
TGI (SK-MEL-2 melanoma): > 100 µM
TGI (SK-MEL-28 melanoma): > 100 µM
TGI (SK-MEL-5 melanoma): > 100 µM
TGI (SK-OV-3 ovarian): > 100 µM
TGI (SN12C renal): > 100 µM
TGI (SNB-19 CNS): 56.5 µM
TGI (SNB-75 CNS): > 100 µM
TGI (SW-620 colon): > 100 µM
TGI (T-47D breast): > 100 µM
TGI (TK-10 renal): > 100 µM
TGI (U251 CNS): 34.6 µM
TGI (UACC-257 melanoma): > 100 µM
TGI (UACC-62 melanoma): > 100 µM
TGI (UO-31 renal): > 100 µM

Clc1ccc(Cc2nc3cc(Cl)ccc3o2)cc1
TGI (786-0 renal): > 100 µM
TGI (A549 NSCLC): > 100 µM
TGI (ACHN renal): > 100 µM
TGI (BT-549 breast): > 100 µM
TGI (CAKI-1 renal): > 100 µM
TGI (CCRF-CEM leukemia): 92.3 µM
TGI (COLO 205 colon): 87.4 µM
TGI (DU-145 prostate): > 100 µM
TGI (EKVX NSCLC): 80.9 µM
TGI (HCC-2998 colon): 53.2 µM
TGI (HCT-116 colon): > 100 µM
TGI (HCT-15 colon): > 100 µM
TGI (HL-60(TB) leukemia): > 100 µM
TGI (HOP-62 NSCLC): > 100 µM
TGI (HOP-92 NSCLC): > 100 µM
TGI (HS 578T breast): > 100 µM
TGI (HT29 colon): > 100 µM
TGI (IGROV1 ovarian): > 100 µM
TGI (K-562 leukemia): > 100 µM
TGI (KM12 colon): > 100 µM
TGI (LOX IMVI melanoma): > 100 µM
TGI (M14 melanoma): > 100 µM
TGI (MALME-3M melanoma): > 100 µM
TGI (MCF7 breast): > 100 µM
TGI (MDA-MB-231 breast): > 100 µM
TGI (MDA-MB-435): 95.6 µM
TGI (MDA-N): > 100 µM
TGI (MOLT-4 leukemia): > 100 µM
TGI (NCI-H226 lung): > 100 µM
TGI (NCI-H23 lung): > 100 µM
TGI (NCI-H460 lung): > 100 µM
TGI (NCI-H522 lung): 97 µM
TGI (NCI/ADR-RES ovarian): > 100 µM
TGI (OVCAR-3 ovarian): 70.9 µM
TGI (OVCAR-4 ovarian): > 100 µM
TGI (OVCAR-5 ovarian): > 100 µM
TGI (OVCAR-8 ovarian): > 100 µM
TGI (PC-3 prostate): > 100 µM
TGI (RPMI-8226 leukemia): > 100 µM
TGI (SF-268 CNS): > 100 µM
TGI (SF-295 CNS): 71.8 µM
TGI (SF-539 CNS): > 100 µM
TGI (SK-MEL-2 melanoma): 35.4 µM
TGI (SK-MEL-28 melanoma): > 100 µM
TGI (SK-MEL-5 melanoma): 33.1 µM
TGI (SK-OV-3 ovarian): 68.7 µM
TGI (SN12C renal): > 100 µM
TGI (SNB-19 CNS): > 100 µM
TGI (SR leukemia): > 100 µM
TGI (SW-620 colon): > 100 µM
TGI (T-47D breast): 97.9 µM
TGI (TK-10 renal): > 100 µM
TGI (U251 CNS): 91.2 µM
TGI (UACC-257 melanoma): 92.2 µM
TGI (UACC-62 melanoma): > 100 µM
TGI (UO-31 renal): > 100 µM
